# Test results: patent publication US10301664B2, “Repurposing non-antimicrobial drugs and clinical molecules to treat bacterial infections” (Purdue Research Foundation, priority 2015, dated 2019)
# Assays:
# K. pneumonia = experiment: MIC against G-ve with and without colistin: K. pneumonia; type: cell-based
# [1] = test system: pro-inflammatory cytokines (TNF-α, IL-6, IL-1β, MCP-1); experiment: Cytokines production in MRSA skin infection in mice; type: in vivo; conditions: topical application
# From the text: Each points represents single mice and each group has 5 mice. P values of (*P≤0.05) (**P≤0.01) are considered as significant. We investigated the immunomodulatory activity of Auranofin and ebselen in a topical application against MRSA skin infection in mice.
# In this Example, we investigated the immunomodulatory activity of Auranofin and Ebselen in a topical application against MRSA skin infection in mice. […] These cytokines are thought to play a greater role in the severity of S. aureus skin infections more than the size of the bacterial burden and can lead to an infection persisting for a longer time period. Therefore, the ability of Auranofin and Ebselen reduces the production of these cytokines in the infected mice, indicating the clinical relevance of these drugs if used for antimicrobial treatment.
# S. aureus = experiment: Macromolecular synthesis (MMS): incorporation of radioactive precursors; type: cell-based
# From the text: In this Example we examined the effect of Auranofin and Ebselen on incorporation of radioactive precursors into macromolecules in S. aureus.
# MRSA USA300 [2] = experiment: Mouse-model of staphylococcal skin infection: bacterial load; type: in vivo, BALB/c mice; conditions: topical 20 mg of 2% in petroleum jelly, twice a day for 5 days
# Experimental: Auranofin and ebselen were evaluated in a mouse-model of staphylococcal skin infection. Seven groups of BALB/c mice (n=5) were inoculated with MRSA USA300 (4.3×10^9 CFU/ml) intradermally. 48 hours after infection and formation of open wound, four groups were treated topically with 20 mg of 2% Ebselen, 2% Auranofin, 2% mupirocin or 2% […] in petroleum jelly (ointment—skin protectant). Two groups were treated orally with either linezolid or clindamycin (25 mg/kg). The last group received the vehicles alone (petroleum jelly). All groups were treated twice a day for 5 days.
# Since the clinical severity of bacterial skin infections is driven by the excess host pro-inflammatory cytokines rather than by bacterial burden, the recognized anti-inflammatory response of Auranofin and Ebselen combined with the potent antimicrobial, killing intracellular MRSA, and antibiofilm activities, should provide great advantage in the treatment of bacterial skin infection and wound healing. In this Example, we evaluated Auranofin and Ebselen in a mouse-model of staphylococcal skin infection. Seven groups of BALB/c mice (n=5) were inoculated with MRSA USA300 (4.3×10^9 CFU/ml) intradermally. 48 hours after infection and formation of open wound, four groups were treated topically with 20 mg of 2% ebselen, 2% auranofin, 2% mupirocin or 2% […] in petroleum jelly (ointment—skin protectant). […]
# [3] = test system: E. coli cellular extracts (bacterial translation process); experiment: Bacterial transcription and translation assay, luciferase readout; type: biochemical
# From the text: For bacterial protein-synthesis inhibition, E. coli cellular extracts in a transcription and translation assay were used to monitor protein production via luciferase readout.
# (§1) In this Example, we tested the effects of the two drugs on bacterial, mammalian and mitochondrial protein-synthesis. For bacterial protein-synthesis inhibition, we used E. coli cellular extracts in a transcription and translation assay that monitors protein production via luciferase readout.
# [4] = test system: multiple MRSA and VRSA strains; experiment: Synergy with conventional antimicrobials in vitro; type: cell-based, S. aureus; conditions: most tested conventional antimicrobials, all tested strains (few exceptions such as VRSA5)
# E.. coli O157:H7 = experiment: MIC against G-ve with and without colistin: E. coli O157:H7; type: cell-based
# [5] = test system: MRSA (23) clinical isolates; experiment: MIC against Gram +ve clinical isolates: MRSA; type: cell-based, S. aureus; conditions: for MIC50: MRSA (23)
# P. aeruginosa = experiment: MIC against G-ve with and without colistin: P. aeruginosa; type: cell-based
# [6] = test system: intracellular MRSA USA300 in J774A.1 cells; experiment: Activity against intracellular MRSA in J774A.1 cells; type: cell-based; conditions: compared to vancomycin and linezolid
# S. aureus biofilm = experiment: Reduction of adherent S. aureus biofilm; type: cell-based; conditions: compared to linezolid, mupirocin, vancomycin, rifampicin
# From the text: (§2) Biofilms are a major contributing factor to lack of healing of chronic wounds, as the matrix-embedded bacteria are recalcitrant to antibiotics and host immune response, rendering them extremely challenging and costly to treat.
# [7] = test system: VRE (14) clinical isolates; experiment: MIC against Gram +ve clinical isolates: VRE; type: cell-based, enterococcus
# [8] = test system: Colistin resistant clinical isolates of P. aeruginosa; experiment: MIC against G-ve with and without colistin: colistin resistant P. aeruginosa; type: cell-based; conditions: without colistin
# S. Typhimurium = experiment: MIC against G-ve with and without colistin: S. Typhimurium; type: cell-based; conditions: without colistin
# MRSA USA300 [9] = experiment: Non-lethal MRSA infection mice model; type: in vivo; conditions: two doses oral 0.25 mg/kg
# From the text: (§3) For MRSA systemic infection, neutropenic Female BALB/c mice were inoculated IP with 1×10^9 MRSA USA300.
# [10] = test system: MRSA USA300-0114 toxins hla and PVL; experiment: MRSA toxin production by ELISA; type: cell-based, S. aureus; conditions: 1 hour incubation
# [11] = test system: MRSA USA300 persister cells tolerant to ciprofloxacin; experiment: Killing of S. aureus persister cells; type: cell-based; conditions: added after ciprofloxacin treatment; 48 h
# [12] = test system: rabbit reticulocyte lysate system (mammalian protein synthesis); experiment: Mammalian protein synthesis in rabbit reticulocyte lysate system; type: biochemical
# From the text: (IC50) of Auranofin in rabbit reticulocyte extract. […] The results are given as means±SD (data without error bars indicate that the SD is too small to be seen).
# as §1
# MRSA USA300 [13] = experiment: Mouse model of MRSA systemic infection (lethal); type: in vivo, BALB/c mice; conditions: three doses
# From the text: as §3
# [14] = in vivo; cited from earlier work
# A. baumannii = experiment: MIC against G-ve with and without colistin: A. baumannii; type: cell-based
# S. epidermidis biofilm = experiment: Reduction of adherent S. epidermidis biofilm; type: cell-based; conditions: compared to linezolid, mupirocin, vancomycin, rifampicin
# From the text: as §2
# [15] = test system: VISA and VRSA (14) clinical isolates; experiment: MIC against Gram +ve clinical isolates: VISA and VRSA; type: cell-based, S. aureus
# [16] = concentrations significantly below the MIC
structure (smiles),measurement,setting,value
CC(=O)OC[C@H]1O[C@@H]([S-])[C@H](OC(C)=O)[C@@H](OC(C)=O)[C@@H]1OC(C)=O.CCP(CC)CC.[Au+] [Auranofin],"MIC, colistin (+)",K. pneumonia; with sub-inhibitory colistin 0.125 μg/ml,0.125 µg/mL
same,"MIC, colistin (−)",K. pneumonia; without colistin,256 µg/mL
same,level of IL-6,[1],significantly reduced
same,level of TNF-α,[1],significantly reduced
same,level of IL-1β,[1]; data not shown,significantly reduced
same,level of MCP-1,[1]; data not shown,significantly reduced
same,DNA synthesis inhibition,S. aureus; [16],clear dose-dependent disruption
same,cell wall synthesis inhibition,S. aureus; [16],clear dose-dependent disruption
same,protein synthesis inhibition,S. aureus; [16],clear dose-dependent disruption
same,effect on RNA synthesis,S. aureus; up to 4×MIC,no significant effect
same,effect on lipid synthesis,S. aureus; up to 4×MIC,no significant effect
same,bacterial load in MRSA skin lesions,MRSA USA300 [2],significantly reduced the bacterial load
same,IC50 of bacterial translation,[3],0.038 µg/mL
same,relationship with conventional antimicrobials in vitro,[4],synergistic relationship
same,"MIC, colistin (+)","E.. coli O157:H7; E. coli O157:H7, with sub-inhibitory colistin 0.0625 μg/ml",0.0625 µg/mL
same,"MIC, colistin (−)","E.. coli O157:H7; E. coli O157:H7, without colistin",64 µg/mL
same,MIC50,[5]; first column per drug,0.062 µg/mL
same,MIC50,[5]; second column per drug,0.125 µg/mL
same,MIC90 (MICs at which 90% of MRSA isolates were inhibited),[5]; MRSA isolates,0.125 µg/mL
same,"MIC, colistin (+)",P. aeruginosa; with sub-inhibitory colistin 0.25 μg/ml,0.0312 µg/mL
same,"MIC, colistin (−)",P. aeruginosa; without colistin,256 µg/mL
same,reduction of intracellular MRSA,[6],superior in reducing intracellular MRSA
same,reduction of adherent biofilm,S. aureus biofilm,superior in reducing adherent biofilms
same,MIC50,[7]; first column per drug,0.125 µg/mL
same,MIC50,[7]; second column per drug,0.125 µg/mL
same,"MIC, colistin (−)",[8],>256 µg/mL
same,"MIC, colistin (−)",S. Typhimurium,128 µg/mL
same,bacterial load in the liver and spleen,MRSA USA300 [9],significantly reduced the bacterial load
same,production of toxin PVL,[10],significantly suppressed toxin production
same,production of toxin hla,[10],significantly suppressed toxin production
same,effect on number of planktonic persister cells,[11],complete eradication of planktonic persister cells
same,inhibition of translation in mammalian protein synthesis,[12],did not inhibit translation
same,mice survival,MRSA USA300 [13]; oral 0.125 mg/kg once daily,40%
same,mice survival,MRSA USA300 [13]; oral 0.25 mg/kg once daily,80%
same,clinically achievable blood concentration,[14],2.37 µg/mL
same,"MIC, colistin (+)",A. baumannii; with sub-inhibitory colistin 0.0625 μg/ml,0.25 µg/mL
same,"MIC, colistin (−)",A. baumannii; without colistin,16 µg/mL
same,reduction of adherent biofilm,S. epidermidis biofilm,superior in reducing adherent biofilms
same,MIC50,[15]; first column per drug,0.062 µg/mL
same,MIC50,[15]; second column per drug,0.062 µg/mL
